The values that follow come from US9873883B2, “Glyphosate resistant plants and associated methods” (Dow AgroSciences LLC, priority 2012, dated 2018).

Some results are limits rather than exact numbers.

Test [1] has as its target T1, Glycine max (soybean) EPSP synthase DGT-1 variant DGT-1 v6 (G→A) (Glycine max, UniProt I1J7U9, G182A).
T1 sequence (I1J7U9 with tags, fused parts or gaps G182A): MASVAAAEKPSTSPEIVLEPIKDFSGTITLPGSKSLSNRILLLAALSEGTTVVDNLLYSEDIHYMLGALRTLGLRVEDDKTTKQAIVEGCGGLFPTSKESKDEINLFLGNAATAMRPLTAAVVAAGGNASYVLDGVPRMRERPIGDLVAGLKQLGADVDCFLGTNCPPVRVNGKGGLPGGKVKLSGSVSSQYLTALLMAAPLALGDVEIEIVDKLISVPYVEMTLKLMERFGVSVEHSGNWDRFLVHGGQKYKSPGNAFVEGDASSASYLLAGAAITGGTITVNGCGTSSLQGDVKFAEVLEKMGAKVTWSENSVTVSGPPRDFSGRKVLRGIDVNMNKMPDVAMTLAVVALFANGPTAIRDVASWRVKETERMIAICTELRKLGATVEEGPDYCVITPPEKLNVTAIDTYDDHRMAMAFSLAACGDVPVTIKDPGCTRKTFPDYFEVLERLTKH
Briefly: In vitro kinetic assay (inorganic phosphate production, malachite green). It is filed as biochemical. The note with it: for IC50: IC50 (glyphosate). An excerpt: (§1) The following Class I enzymes: DGT-1 from Glycine max, DGT-3 from Brassica napus (GENBANK ACC NO: P17688), and DGT-7 from Triticum aestivum (GENBANK ACC NO: EU977181) were used as a comparison. The Class I EPSP synthase enzymes and mutant variants thereof were synthesized and evaluated. A mutation introduced into the plant EPSP synthase enzymes consisted of the Glycine to Alanine mutation made within the EPSP synthase enzyme at a similar location as that of the G96A mutation from the E. coli version of the enzyme. In addition, Threonine to Isoleucine and Proline to Serine mutations were introduced within these Class I EPSP synthase enzymes at analogous positions as that of amino acid 97 (T to I) and amino acid 101 (P to S) in the EPSP synthase of E. coli as described in Funke et al., (2009).
(§2) The location of the amino acid residue which was mutated from glycine to alanine is indicated by the first asterisk. The location of the amino acid residue which was mutated from threonine to isoleucine is indicated by the second asterisk. The location of the third amino acid residue which was mutated from proline to serine is indicated by the third asterisk. These mutations were introduced into different versions of DGT-1, DGT-3, and DGT-7. The different versions of the genes which contain the mutations are described in more detail below.
(§3) Additional constructs containing the dgt-1, dgt-3 and dgt-7 were synthesized. These constructs were used for in vitro testing of the dgt-1 v5, dgt-1 v6, dgt-1 v7, dgt-1 v8, dgt-3 v6, dgt-3 v7, dgt-3 v8, dgt-7 v5, dgt-7 v6, dgt-7 v7, and dgt-7 v8 gene sequences were outsourced to GeneArt for synthesis and cloning. The synthesized genes were cloned into the pET28 expression vector. The resulting constructions were labeled as pDAB102028 containing dgt-1 v5, pDAB102029 containing dgt-1 v6, pDAB102032 containing dgt-1 v7, pDAB102034 containing dgt-1 v8, pDAB100429 containing dgt-3 v6, pDAB100442 containing dgt-3 v7, pDAB100430 containing dgt-3 v8, pDAB102036 containing dgt-7 v5, pDAB102038 containing dgt-7 v6, pDAB102040 containing dgt-7 v7, and pDAB102042 containing dgt-7 v8.
(§4) Recombinant DGT proteins were overexpressed in Rosetta2™ (DE3) cells (Novagen, Madison, Wis.) from the constructs described above. A single colony was used to inoculate 50 mL starter cultures of LB containing chloramphenicol (25 μg/mL) and kanamycin (50 μg/mL) which were cultivated overnight at 37° C. The overnight cultures were used to inoculate 1 L of LB containing chloramphenicol (25 μg/mL) and kanamycin (50 μg/mL). The cultures were grown at 37° C. to an O.D.600=0.6 then placed in an ice water bath for 10 minutes. Expression of the target proteins was achieved by addition of IPTG to a final concentration of 500 μM. Induction was allowed to proceed overnight at 20° C. followed by harvesting via centrifugation at 8,000 rpm for 20 minutes. The cell pellets were stored at −80° C. until required for purification. All purification steps were carried out at 4° C.
(§5) Cell pellets from 1 L cultures were resuspended in 20-30 mL Buffer A (50 mM HEPES pH 7.5, 150 mM KCl, 2 mM DTT, 1 mM EDTA, 20 mM imidazole, and 5% glycerol). COMPLETE™ protease inhibitor cocktail (1 tablet/50 mL, Roche, Indianapolis, Ind.) and lysozyme (1 mg/mL, Sigma-Aldrich, St. Louis, Mo.) were then added and the suspension was stirred for 20 minutes. Cell lysis was performed using a Branson Sonifier 250 (3×60 second bursts) followed by removal of the cell debris by centrifugation at 16,000 rpm for 45 minutes. DGT enzymes were purified to homogeneity in one step via immobilized metal affinity chromatography (IMAC) using a 5 mL HisTrap FF crude column. The column was equilibrated in Buffer A and the sample was loaded in the same buffer. The column was then washed with 10 column volumes of Buffer A followed by elution in a 0-100% Buffer B (50 mM HEPES pH 7.5, 200 mM KCl, 2 mM DTT, 1 mM EDTA, 500 mM imidazole, and 5% glycerol) linear gradient over 25 column volumes. […]

Test [2] has as its target T2, Triticum aestivum (wheat) EPSP synthase DGT-7 variant DGT-7 v8 (T→I, P→S; TIPS) (Triticum aestivum, UniProt B5M6A1, P172S/T168I).
T2 construct: TIPS double mutant
T2 sequence (B5M6A1 with tags, fused parts or gaps T168I/P172S): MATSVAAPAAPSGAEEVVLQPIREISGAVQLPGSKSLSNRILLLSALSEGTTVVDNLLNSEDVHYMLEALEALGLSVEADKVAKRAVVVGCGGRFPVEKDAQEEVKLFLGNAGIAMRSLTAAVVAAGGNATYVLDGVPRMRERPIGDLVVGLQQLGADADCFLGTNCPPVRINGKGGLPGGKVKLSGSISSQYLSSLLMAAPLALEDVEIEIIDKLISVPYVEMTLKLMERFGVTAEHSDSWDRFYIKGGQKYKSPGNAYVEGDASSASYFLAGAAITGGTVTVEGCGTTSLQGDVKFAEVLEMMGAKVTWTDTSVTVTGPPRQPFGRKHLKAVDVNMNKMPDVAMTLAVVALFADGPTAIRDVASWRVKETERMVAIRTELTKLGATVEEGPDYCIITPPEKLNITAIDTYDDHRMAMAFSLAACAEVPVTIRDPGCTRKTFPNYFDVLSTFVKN
The description is as above. It is filed as biochemical.
Excerpt: as §1, §2, §3, §4, §5

What is called kcat/Km is the turnover number divided by the Michaelis constant. The Km is the concentration of substrate that gives half-maximal velocity. Regarding `C=C(OP(=O)(O)O)C(=O)O` [PEP, phosphoenolpyruvate], the “increase of Km for PEP” value in test [1] (G to A mutation vs un-mutated) was about 8 fold. Besides, in test [2] (PEP, pH 7.5, 1 mM S3P), the kcat/Km was found to be 13600 M⁻¹ s⁻¹. Moreover, in test [2] (read-out: Km for PEP, pH 7.5, 1 mM S3P), the Km was in the range of 60 to 200 µM.

As usually defined, the IC50 is the midpoint of a concentration-inhibition curve. With `O=C(O)CNCP(=O)(O)O` [glyphosate, N-(phosphonomethyl)glycine], the IC50 in test [1] (at 60 μM PEP) was 17.3 mM; in test [1] (at 1 mM PEP), 21.1 mM; in test [2] (IC50 (glyphosate), at 60 μM PEP), 3.6 mM; in test [2] (IC50 (glyphosate), at 1 mM PEP, values greater than 50 are estimates), over 80 mM; in test [2] (tolerance to glyphosate, PEP concentration not given), 3 to 6 mM.
